Data taken from article PMC7571068, “Antiproliferative and Pro-Apoptotic Effect of Uvaol in Human Hepatocarcinoma HepG2 Cells by Affecting G0/G1 Cell Cycle Arrest, ROS Production and AKT/PI3K Signaling Pathway” (Molecules, 2020).

Experiments:
WRL68 cells [1] = assay: Muse Oxidative Stress kit, ROS production; type: cell-based, human; conditions: WRL68, IC50, 24 h
Protocol: (§1) A total of 1.5 × 10^5 cells were seeded per well in 24-well plates for each cell line (quadruplicates for three different populations of each cell line). […] Negative control populations were incubated only with the appropriate culture medium. The samples were analyzed in the Muse^TM Cell Analyzer (Merck-Millipore®, Burlington, MA, USA). The method is based on the use of dihydroetide (DHE), a reagent capable of crossing the cell membrane and interacting with superoxide anions, a type of ROS. In this process, DHE oxidizes and forms the DNA intercalating agent ethidium bromide, detectable by its fluorescence emission. […] The Muse^TM Oxidative Stress kit purchased from Millipore (Billerica, MA, USA) was used for this purpose.

HepG2 cells [2] = assay: Muse Oxidative Stress kit, ROS production; type: cell-based, human; conditions: HepG2, IC50, 24 h
Protocol: as §1

WRL68 cells [3] = assay: Wound healing (scratch) assay; type: cell-based, human; conditions: WRL68, IC50 concentration, 0-42 h
Protocol: (§2) The wound healing or scratch assay was used to assess the migration capacity of the WRL68 and HepG2 cell lines. With this objective, 3 × 10^5 cells were seeded per well in a 6-well plate in triplicate for each cell line. When the populations reached a confluence of 80–90%, a sterile pipette tip was used to disrupt in a straight line (make a wound) the layer of cells attached to the culture surface. Subsequently, it was washed with PBS to prevent the cells that had been lifted from being able to rejoin. […] Quantification of wound healing was performed by using the MRI-Wound Healing Tool for ImageJ software (ImageJ 1.53a version).

HepG2 cells [4] = assay: Wound healing (scratch) assay; type: cell-based, human; conditions: HepG2, IC50 concentration, 0-42 h
Protocol: as §2

[5] = system: p53, c-Myc, Bcl-2, SOD, HSP-60 and Bax proteins in WRL68 cells; assay: Western blot of protein expression; type: cell-based, human; conditions: WRL68, IC50, 24 h, normalized to actin
Protocol: (§3) Triplicates of three different populations of each cell line, WRL68 and HepG2, were seeded in 6-well plates with a density of 2.5 × 10^5 cells per well. […] For protein extraction, each sample was resuspended in 20 μL of RIPA buffer (150 mM NaCl, 1% Igepal, 0.5% deoxycholic acid, 0.1% SDS, 50 mM Tris HCl pH 7.5, 0.2 M PMSF, […] and Thermo Scientific® PierceTM inhibitor cocktail, Waltham, MA, USA), and held on ice for 15 min. They were centrifuged at 15,000× g for 10 min at 4 °C, the supernatant was collected and stored at −80 °C for further analysis. The quantification of the protein concentration was carried out through the Bradford method. The methodology used for Western blot analysis is described by Mokhtari et al.. Brie fly, the initial separation of the extracts was performed by a 12% polyacrylamide gel electrophoresis under denaturing conditions (SDS-PAGE). A standardized load of 30 μg of protein per well was used after denaturing the samples at 95 °C for 5 min and adding the loading buffer (0.25 mM Tris-HCl pH 6.8, 10% SDS, 1 M DTT and glycerol). The proteins were transferred, by the semi-dry transfer method, (60 mA per gel, 1 h) using the TransBlot Turbo system (BioRad®, Berkeley, CA, USA), to a PVDF membrane. The membranes were blocked with blocking buffer (TBS, 0.1% Tween-20 and 3% skimmed milk) for 1 h at room temperature, incubating with the specific primary antibodies against the proteins studied at 4 °C overnight. The primary antibodies (from Santa Cruz Biotechnology®, Dallas, TX, USA) were diluted in blocking buffer. The membranes were washed with TBS-T (TBS, 0.1% Tween-20) for 5 min three times under stirring, and incubated with the corresponding secondary antibody (from Sigma®, St. Louis, MO, USA) (Table 1) for 1 h at room temperature, repeating the previous washing process later. These secondary antibodies have the enzyme horseradish peroxidase (HRP) coupled, which allows chemiluminescence to be detected in the presence of the protein band due to its ability to oxidize the luminol solution (ECL-plus Western-blot detection system, GE Healthcare, Chicago, IL, USA). The reaction produced was captured inside a ChemiDoc Imaging System (Bio-Rad®, Berkely, CA, USA). The program used to analyze the images obtained was Image Lab Software (Bio-Rad®, for PC 6.1 version). The expression of each protein was normalized referring to actin levels and were represented based on the results obtained for the control situation (WRL68 line without treatment) as percentage of expression (%). The expression obtained in each protein was analyzed through the mentioned program in triplicate.

[6] = system: p53, c-Myc, Bcl-2, SOD, HSP-60 and Bax proteins in HepG2 cells; assay: Western blot of protein expression; type: cell-based, human; conditions: HepG2, IC50, 24 h, normalized to actin
Protocol: as §3

WRL68 cells [7] = assay: Muse Annexin V & Dead Cell apoptosis assay; type: cell-based, human; conditions: WRL68, uvaol IC50, 24 h
Protocol: (§4) A total of 1.5 × 10^5 cells were seeded per well in 24-well plates for each cell line (quadruplicates for three different populations of each cell line). […] Negative control populations were incubated only with the appropriate culture medium. The samples were analyzed in the Muse^TM Cell Analyzer (Merck-Millipore®, Burlington, MA, USA). Phosphatidylserine (PS) is a phospholipid that is usually found in the inner half of the cytoplasmic membrane, but is outsourced when loss of integrity occurs in the apoptosis process. The method is based on the recognition and binding to the PS exposed by annexin V protein, labeled with a fluorescent substance to detect the interaction and quantify it. We used the Muse^TM Annexin V & Dead Cell kit purchased from Millipore (Billerica, MA, USA), which provides the percentage of viable cells, apoptotic and affected by necrosis.

HepG2 cells [8] = assay: Muse Annexin V & Dead Cell apoptosis assay; type: cell-based, human; conditions: HepG2, uvaol IC50, 24 h
Protocol: as §4

[9] = system: MDA-MB-231 (triple negative breast cancer); design: method as in PMID 21142067; conditions: MDA-MB-231, 10 and 100 µM; cited from earlier work

C[C@H]1[C@H](C)CC[C@]2(CO)CC[C@]3(C)C(=CC[C@@H]4[C@@]5(C)CC[C@H](O)C(C)(C)[C@@H]5CC[C@]43C)[C@H]12 [uvaol, urs-12-ene-3,28-diol]
change in ROS levels vs control (WRL68 cells [1]): without significant differences | change in percentage of cells expressing ROS vs control (HepG2 cells [2]): significant decrease | wound closure (cell migration) (WRL68 cells [3]): wound healing was maintained during more hours than the control group | wound closure (cell migration) (HepG2 cells [4]): the wound remains until the end of the trial | Bax expression vs control [5]: did not produce changes | Bcl-2 expression vs control [5]: did not produce changes | HSP-60 expression vs control [5]: increased in both lines | SOD expression vs control [5]: increased | c-Myc expression vs control [5]: increase | p53 expression vs control [5]: increased | Bax expression vs control [6]: increased | Bcl-2 expression vs control [6]: decreased | HSP-60 expression vs control [6]: increased in both lines | SOD expression vs control [6]: remained unchanged | c-Myc expression vs control [6]: maintained | p53 expression vs control [6]: remained unchanged | change in number of apoptotic and necrotic cells vs control (WRL68 cells [7]): equally significant increase | change in number of viable cells vs control (WRL68 cells [7]): significant decrease | change in percentage of viable cells vs control (HepG2 cells [8]): significant reduction | change in proportion of apoptotic cells vs control (HepG2 cells [8]): increasing the proportion of apoptotic cells | induction of apoptosis [9]: did not show this effect
